Source: patent US20260356819A1, “OXOISOINDOLINYL-SUBSTITUTED […] DERIVATIVE AND USE THEREOF” (GLUETACS THERAPEUTICS (SHANGHAI) CO., LTD., priority 2023, published 2026)

Assays:
Format in all cases: cell-based
Conditions in all cases: compounds at 50 nM and 500 nM
IKZF3 = molecular target: T1, IKZF3 (Homo sapiens, UniProt Q96SW2+Q9UKT9); assay: Western blot degradation of IKZF3 in hPBMCs (24 h)
T1 construct: The supernatant was aspirated as the extracted total cell protein; endogenous in cells; host or cells: human peripheral blood mononuclear cells (hPBMCs)
Summary of the method: (§1)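 Degradation in primary human PBMCs after 24 h compound exposure at 50 and 500 nM. Western blot band intensities, normalised to an internal control protein, expressed as % protein remaining relative to DMSO.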

IKZF1 = molecular target: T2, IKZF1 (Homo sapiens, UniProt Q13422+Q96SW2); assay: Western blot degradation of IKZF1 in hPBMCs (24 h)
T2 construct: The supernatant was aspirated as the extracted total cell protein; endogenous in cells; host or cells: human peripheral blood mononuclear cells (hPBMCs)
Summary of the method: as §1

WEE1 = molecular target: T3, WEE1 (Homo sapiens, UniProt P30291+Q96SW2); assay: Western blot degradation of WEE1 in hPBMCs (24 h)
T3 construct: The supernatant was aspirated as the extracted total cell protein; endogenous in cells; host or cells: human peripheral blood mononuclear cells (hPBMCs)
Summary of the method: as §1

IKZF2 = molecular target: T4, IKZF2 (Homo sapiens, UniProt Q96SW2+Q9UKS7); assay: Western blot degradation of IKZF2 in hPBMCs (24 h)
T4 construct: The supernatant was aspirated as the extracted total cell protein; endogenous in cells; host or cells: human peripheral blood mononuclear cells (hPBMCs)
Summary of the method: as §1

CK1α = molecular target: T5, CK1α (Homo sapiens, UniProt P48729+Q96SW2); assay: Western blot degradation of CK1α in hPBMCs (24 h)
T5 construct: The supernatant was aspirated as the extracted total cell protein; endogenous in cells; host or cells: human peripheral blood mononuclear cells (hPBMCs)
Summary of the method: as §1

GSPT1 = molecular target: T6, GSPT1 (Homo sapiens, UniProt P15170+Q96SW2); assay: Western blot degradation of GSPT1 in hPBMCs (24 h)
T6 construct: The supernatant was aspirated as the extracted total cell protein; endogenous in cells; host or cells: human peripheral blood mononuclear cells (hPBMCs)
Summary of the method: as §1

T4 sequence (Q9UKS7 whole entry): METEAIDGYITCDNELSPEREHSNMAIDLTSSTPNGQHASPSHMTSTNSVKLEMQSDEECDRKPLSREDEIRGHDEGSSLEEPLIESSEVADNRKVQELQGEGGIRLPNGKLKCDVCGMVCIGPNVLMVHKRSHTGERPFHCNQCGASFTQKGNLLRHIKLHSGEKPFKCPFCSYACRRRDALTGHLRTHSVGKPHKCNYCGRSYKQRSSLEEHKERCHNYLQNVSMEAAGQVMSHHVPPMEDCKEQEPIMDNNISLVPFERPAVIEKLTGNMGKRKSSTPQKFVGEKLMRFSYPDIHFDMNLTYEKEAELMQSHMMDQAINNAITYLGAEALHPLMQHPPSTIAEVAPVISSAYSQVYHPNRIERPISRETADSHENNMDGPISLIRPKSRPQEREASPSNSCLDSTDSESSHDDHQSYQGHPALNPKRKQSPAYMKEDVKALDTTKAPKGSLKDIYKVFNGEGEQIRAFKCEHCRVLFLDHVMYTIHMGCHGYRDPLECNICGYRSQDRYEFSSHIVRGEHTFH
T4 sequence (Q96SW2 whole entry): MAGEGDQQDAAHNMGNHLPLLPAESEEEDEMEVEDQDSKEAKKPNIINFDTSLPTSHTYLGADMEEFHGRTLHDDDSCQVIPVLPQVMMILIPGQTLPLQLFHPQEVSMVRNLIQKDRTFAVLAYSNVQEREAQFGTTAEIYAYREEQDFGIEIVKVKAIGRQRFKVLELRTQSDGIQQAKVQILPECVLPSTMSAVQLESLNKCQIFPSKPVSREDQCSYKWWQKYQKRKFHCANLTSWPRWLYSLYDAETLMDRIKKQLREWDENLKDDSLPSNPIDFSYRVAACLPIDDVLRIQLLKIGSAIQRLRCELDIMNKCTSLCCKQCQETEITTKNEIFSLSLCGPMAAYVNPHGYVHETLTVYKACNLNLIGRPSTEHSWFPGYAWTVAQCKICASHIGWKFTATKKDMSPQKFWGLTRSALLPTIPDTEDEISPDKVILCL
T4 sequence (Q16531 whole entry partner): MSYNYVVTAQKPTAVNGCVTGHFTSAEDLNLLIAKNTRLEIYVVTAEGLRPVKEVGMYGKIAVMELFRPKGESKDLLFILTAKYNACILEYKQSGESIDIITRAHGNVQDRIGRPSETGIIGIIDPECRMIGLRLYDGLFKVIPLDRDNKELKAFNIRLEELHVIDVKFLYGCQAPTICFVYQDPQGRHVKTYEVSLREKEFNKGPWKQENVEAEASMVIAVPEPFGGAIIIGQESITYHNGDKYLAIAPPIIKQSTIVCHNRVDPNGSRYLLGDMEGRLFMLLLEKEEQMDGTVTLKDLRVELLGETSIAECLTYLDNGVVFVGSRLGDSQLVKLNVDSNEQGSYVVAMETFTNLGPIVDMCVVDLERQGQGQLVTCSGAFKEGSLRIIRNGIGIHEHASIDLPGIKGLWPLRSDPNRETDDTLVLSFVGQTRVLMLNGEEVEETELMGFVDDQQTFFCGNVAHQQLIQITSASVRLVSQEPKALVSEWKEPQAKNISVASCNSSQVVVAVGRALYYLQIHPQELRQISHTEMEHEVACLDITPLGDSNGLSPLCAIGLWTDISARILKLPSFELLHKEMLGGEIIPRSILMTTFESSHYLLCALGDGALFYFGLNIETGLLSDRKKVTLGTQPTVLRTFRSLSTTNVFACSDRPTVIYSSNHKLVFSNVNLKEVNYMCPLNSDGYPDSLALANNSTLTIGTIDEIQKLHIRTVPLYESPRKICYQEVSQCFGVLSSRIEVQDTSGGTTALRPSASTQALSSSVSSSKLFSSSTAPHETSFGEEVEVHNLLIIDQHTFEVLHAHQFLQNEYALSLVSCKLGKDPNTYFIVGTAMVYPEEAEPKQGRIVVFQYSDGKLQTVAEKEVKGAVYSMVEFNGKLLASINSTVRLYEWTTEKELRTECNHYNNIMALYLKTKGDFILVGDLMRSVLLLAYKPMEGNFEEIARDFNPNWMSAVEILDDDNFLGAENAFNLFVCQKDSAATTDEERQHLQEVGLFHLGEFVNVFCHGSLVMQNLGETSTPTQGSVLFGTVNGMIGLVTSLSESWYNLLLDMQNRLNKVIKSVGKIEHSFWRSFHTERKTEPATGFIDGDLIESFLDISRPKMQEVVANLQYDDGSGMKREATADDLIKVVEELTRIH
T5 sequence (P48729 whole entry): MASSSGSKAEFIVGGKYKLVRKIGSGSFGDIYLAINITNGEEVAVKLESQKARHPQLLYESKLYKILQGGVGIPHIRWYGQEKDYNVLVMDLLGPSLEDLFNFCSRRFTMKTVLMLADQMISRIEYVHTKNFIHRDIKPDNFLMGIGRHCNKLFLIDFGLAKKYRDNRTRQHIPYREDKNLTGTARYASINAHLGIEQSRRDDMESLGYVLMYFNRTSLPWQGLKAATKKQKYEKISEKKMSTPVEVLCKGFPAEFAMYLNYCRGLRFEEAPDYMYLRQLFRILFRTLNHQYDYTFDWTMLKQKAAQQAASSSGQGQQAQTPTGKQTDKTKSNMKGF
T5 sequence (Q96SW2 whole entry): as the sequence (Q96SW2 whole entry) above
T5 sequence (Q16531 whole entry partner): as the sequence (Q16531 whole entry partner) above
T6 sequence (P15170 whole entry): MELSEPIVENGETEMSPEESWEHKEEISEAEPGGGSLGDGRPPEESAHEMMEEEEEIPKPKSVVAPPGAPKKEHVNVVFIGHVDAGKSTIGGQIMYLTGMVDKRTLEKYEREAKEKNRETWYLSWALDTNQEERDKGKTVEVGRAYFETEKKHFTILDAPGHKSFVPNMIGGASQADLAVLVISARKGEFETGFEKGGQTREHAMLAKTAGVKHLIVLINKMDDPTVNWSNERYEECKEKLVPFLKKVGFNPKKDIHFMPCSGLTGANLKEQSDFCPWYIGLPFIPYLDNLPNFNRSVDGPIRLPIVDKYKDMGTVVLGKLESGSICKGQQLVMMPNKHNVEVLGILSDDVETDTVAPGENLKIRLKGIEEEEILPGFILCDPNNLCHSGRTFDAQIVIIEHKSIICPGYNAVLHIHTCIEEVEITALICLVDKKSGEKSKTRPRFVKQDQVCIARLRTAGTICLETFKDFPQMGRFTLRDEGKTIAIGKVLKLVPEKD
T6 sequence (Q96SW2 whole entry): as the sequence (Q96SW2 whole entry) above
T6 sequence (Q16531 whole entry partner): as the sequence (Q16531 whole entry partner) above
T2 sequence (Q13422 whole entry): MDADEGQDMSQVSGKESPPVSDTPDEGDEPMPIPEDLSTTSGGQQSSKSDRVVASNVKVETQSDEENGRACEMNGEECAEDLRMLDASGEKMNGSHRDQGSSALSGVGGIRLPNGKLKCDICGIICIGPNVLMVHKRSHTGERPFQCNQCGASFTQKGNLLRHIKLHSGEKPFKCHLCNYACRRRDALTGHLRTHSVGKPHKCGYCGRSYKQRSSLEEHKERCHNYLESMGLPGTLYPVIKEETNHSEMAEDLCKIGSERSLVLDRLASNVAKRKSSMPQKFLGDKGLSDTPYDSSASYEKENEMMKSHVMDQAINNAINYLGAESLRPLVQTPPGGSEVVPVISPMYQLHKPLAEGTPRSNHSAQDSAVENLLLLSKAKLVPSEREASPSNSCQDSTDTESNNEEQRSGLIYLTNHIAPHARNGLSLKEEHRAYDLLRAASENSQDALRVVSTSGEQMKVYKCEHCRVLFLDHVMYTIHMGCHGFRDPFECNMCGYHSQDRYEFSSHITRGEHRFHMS
T2 sequence (Q96SW2 whole entry): as the sequence (Q96SW2 whole entry) above
T2 sequence (Q16531 whole entry partner): as the sequence (Q16531 whole entry partner) above
T1 sequence (Q9UKT9 whole entry): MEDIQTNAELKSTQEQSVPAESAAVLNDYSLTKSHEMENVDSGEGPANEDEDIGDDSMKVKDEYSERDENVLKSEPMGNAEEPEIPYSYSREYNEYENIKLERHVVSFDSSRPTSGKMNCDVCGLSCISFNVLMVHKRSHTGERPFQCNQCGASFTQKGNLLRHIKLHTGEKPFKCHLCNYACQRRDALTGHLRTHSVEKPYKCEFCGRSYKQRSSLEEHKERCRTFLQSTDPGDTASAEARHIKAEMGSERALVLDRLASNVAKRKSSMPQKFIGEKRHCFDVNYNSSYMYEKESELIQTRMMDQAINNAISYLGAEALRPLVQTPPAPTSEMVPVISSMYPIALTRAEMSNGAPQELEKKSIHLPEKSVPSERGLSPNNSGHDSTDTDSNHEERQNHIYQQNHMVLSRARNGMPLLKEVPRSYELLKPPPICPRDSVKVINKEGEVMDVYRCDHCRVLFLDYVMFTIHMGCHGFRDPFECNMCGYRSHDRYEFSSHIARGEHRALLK
T1 sequence (Q96SW2 whole entry): as the sequence (Q96SW2 whole entry) above
T1 sequence (Q16531 whole entry partner): as the sequence (Q16531 whole entry partner) above

| Structure (SMILES) | IKZF3 substrate protein remaining % (IKZF3) | IKZF1 substrate protein remaining % (IKZF1) | WEE1 substrate protein remaining % (WEE1) | IKZF2 substrate protein remaining % (IKZF2) | CK1α substrate protein remaining % (CK1α) | GSPT1 substrate protein remaining % (GSPT1) |
| --- | --- | --- | --- | --- | --- | --- |
| O=C1CCN(N2Cc3cc(CN4CCC(c5ncnc6sccc56)CC4)ccc3C2=O)C(=O)N1 [GT-08082, 1-(1-oxo-5-((4-(thieno[2,3-d]pyrimidin-4-yl)piperidin-1-yl)methyl)isoindolin-2-yl)dihydropyrimidine-2,4(1H,3H)-dione] | B (80%< substrate protein remaining % ≤100%) | B (80%< substrate protein remaining % ≤100%) | A (0% ≤ substrate protein remaining % ≤80%) | B (80%< substrate protein remaining % ≤100%) | A (0% ≤ substrate protein remaining % ≤80%) | A (0% ≤ substrate protein remaining % ≤80%) |
| O=C1CCN(N2Cc3cc(CN4CCN(c5ccc(Cl)c(Cl)c5)CC4)ccc3C2=O)C(=O)N1 [GT-06775, 1-(5-((4-(3,4-dichlorophenyl)piperazin-1-yl)methyl)-1-oxoisoindolin-2-yl)dihydropyrimidine-2,4(1H,3H)-dione] | A (0% ≤ substrate protein remaining % ≤80%) | B (80%< substrate protein remaining % ≤100%) | B (80%< substrate protein remaining % ≤100%) | A (0% ≤ substrate protein remaining % ≤80%) | A (0% ≤ substrate protein remaining % ≤80%) | A (0% ≤ substrate protein remaining % ≤80%) |
| O=C1CCN(N2Cc3cc(CN4CCN(c5noc6ccncc56)CC4)ccc3C2=O)C(=O)N1 [GT-07497, 1-(5-((4-(isoxazolo[4,5-c]pyridin-3-yl)piperazin-1-yl)methyl)-1-oxoisoindolin-2-yl)dihydropyrimidine-2,4(1H,3H)-dione] | B (80%< substrate protein remaining % ≤100%) | A (0% ≤ substrate protein remaining % ≤80%) | A (0% ≤ substrate protein remaining % ≤80%) | A (0% ≤ substrate protein remaining % ≤80%) | A (0% ≤ substrate protein remaining % ≤80%) | A (0% ≤ substrate protein remaining % ≤80%) |
| O=C1CCN(N2C(=O)c3ccc(CN4CCC(c5c[nH]c6cc(F)ccc56)CC4)cc3C2=O)C(=O)N1 [GT-05259, 2-(2,4-dioxotetrahydropyrimidin-1(2H)-yl)-5-((4-(6-fluoro-1H-indol-3-yl)piperidin-1-yl)methyl)isoindoline-1,3-dione] | B (80%< substrate protein remaining % ≤100%) | A (0% ≤ substrate protein remaining % ≤80%) | B (80%< substrate protein remaining % ≤100%) | A (0% ≤ substrate protein remaining % ≤80%) | B (80%< substrate protein remaining % ≤100%) | A (0% ≤ substrate protein remaining % ≤80%) |
| O=C1CCN(N2Cc3cc(CN4CCN(c5cncc(Cl)c5Cl)CC4)ccc3C2=O)C(=O)N1 [GT-05436, 1-(5-((4-(4,5-dichloropyridin-3-yl)piperazin-1-yl)methyl)-1-oxoisoindolin-2-yl)dihydropyrimidine-2,4(1H,3H)-dione] | B (80%< substrate protein remaining % ≤100%) | B (80%< substrate protein remaining % ≤100%) | A (0% ≤ substrate protein remaining % ≤80%) | B (80%< substrate protein remaining % ≤100%) | B (80%< substrate protein remaining % ≤100%) | A (0% ≤ substrate protein remaining % ≤80%) |
| O=C1CCN(N2Cc3cc(CN4CCN(c5nsc6ccccc56)CC4)ccc3C2=O)C(=O)N1 [GT-04865, 1-(5-((4-(benzo[d]isothiazol-3-yl)piperazin-1-yl)methyl)-1-oxoisoindolin-2-yl)dihydropyrimidine-2,4(1H,3H)-dione] | B (80%< substrate protein remaining % ≤100%) | A (0% ≤ substrate protein remaining % ≤80%) | B (80%< substrate protein remaining % ≤100%) | B (80%< substrate protein remaining % ≤100%) | B (80%< substrate protein remaining % ≤100%) | A (0% ≤ substrate protein remaining % ≤80%) |
| O=C1CCN(N2Cc3cc(CN4CCN(c5c(Cl)cncc5Br)CC4)ccc3C2=O)C(=O)N1 [GT-07170, 1-(5-((4-(3-bromo-5-chloropyridin-4-yl)piperazin-1-yl)methyl)-1-oxoisoindolin-2-yl)dihydropyrimidine-2,4(1H,3H)-dione] | B (80%< substrate protein remaining % ≤100%) | A (0% ≤ substrate protein remaining % ≤80%) | A (0% ≤ substrate protein remaining % ≤80%) | B (80%< substrate protein remaining % ≤100%) | B (80%< substrate protein remaining % ≤100%) | B (80%< substrate protein remaining % ≤100%) |
| O=C1CCN(N2C(=O)c3ccc(CN4CCc5sccc5C4)cc3C2=O)C(=O)N1 [GT-05254, 5-((6,7-dihydrothieno[3,2-c]pyridin-5 (4H)-yl)methyl)-2-(2,4-dioxotetrahydropyrimidin-1(2H)-yl)isoindoline-1,3-dione] | B (80%< substrate protein remaining % ≤100%) | B (80%< substrate protein remaining % ≤100%) | B (80%< substrate protein remaining % ≤100%) | B (80%< substrate protein remaining % ≤100%) | B (80%< substrate protein remaining % ≤100%) | A (0% ≤ substrate protein remaining % ≤80%) |
| Cc1cc(C2CCN(Cc3ccc4c(c3)C(=O)N(N3CCC(=O)NC3=O)C4=O)CC2)cs1 [GT-07421, 2-(2,4-dioxotetrahydropyrimidin-1(2H)-yl)-5-((4-(5-methylthiophen-3-yl)piperidin-1-yl)methyl)isoindoline-1,3-dione] | B (80%< substrate protein remaining % ≤100%) | B (80%< substrate protein remaining % ≤100%) | B (80%< substrate protein remaining % ≤100%) | B (80%< substrate protein remaining % ≤100%) | A (0% ≤ substrate protein remaining % ≤80%) | A (0% ≤ substrate protein remaining % ≤80%) |
| O=C1CCN(N2C(=O)c3ccc(CN4CCC(c5ccc(Br)cc5)CC4)cc3C2=O)C(=O)N1 [GT-06805, 5-((4-(4-bromophenyl)piperidin-1-yl)methyl)-2-(2,4-dioxotetrahydropyrimidin-1(2H)-yl)isoindoline-1,3-dione] | B (80%< substrate protein remaining % ≤100%) | B (80%< substrate protein remaining % ≤100%) | B (80%< substrate protein remaining % ≤100%) | B (80%< substrate protein remaining % ≤100%) | A (0% ≤ substrate protein remaining % ≤80%) | B (80%< substrate protein remaining % ≤100%) |
| O=C1CCN(N2Cc3cc(CN4CCC(c5noc6cc(F)ccc56)CC4)ccc3C2=O)C(=O)N1 [GT-04864, 1-(5-((4-(6-fluorobenzo[d]isoxazol-3-yl)piperidin-1-yl)methyl)-1-oxoisoindolin-2-yl)dihydropyrimidine-2,4(1H,3H)-dione] | B (80%< substrate protein remaining % ≤100%) | A (0% ≤ substrate protein remaining % ≤80%) | B (80%< substrate protein remaining % ≤100%) | B (80%< substrate protein remaining % ≤100%) | B (80%< substrate protein remaining % ≤100%) | A (0% ≤ substrate protein remaining % ≤80%) |
| O=C1CCN(N2C(=O)c3ccc(CN4CC=C(c5ccnc6cc(F)ccc56)CC4)cc3C2=O)C(=O)N1 [GT-05261, 2-(2,4-dioxotetrahydropyrimidin-1(2H)-yl)-5-((4-(7-fluoroquinolin-4-yl)-3,6-dihydropyridin-1(2H)-yl)methyl)isoindoline-1,3-dione] | B (80%< substrate protein remaining % ≤100%) | B (80%< substrate protein remaining % ≤100%) | B (80%< substrate protein remaining % ≤100%) | A (0% ≤ substrate protein remaining % ≤80%) | B (80%< substrate protein remaining % ≤100%) | B (80%< substrate protein remaining % ≤100%) |
| O=C1CCN(N2Cc3cc(CN4CCC(c5cccc6cnccc56)CC4)ccc3C2=O)C(=O)N1 [GT-07644, 1-(5-((4-(isoquinolin-5-yl)piperidin-1-yl)methyl)-1-oxoisoindolin-2-yl)dihydropyrimidine-2,4(1H,3H)-dione] | B (80%< substrate protein remaining % ≤100%) | B (80%< substrate protein remaining % ≤100%) | B (80%< substrate protein remaining % ≤100%) | B (80%< substrate protein remaining % ≤100%) | B (80%< substrate protein remaining % ≤100%) | A (0% ≤ substrate protein remaining % ≤80%) |
